According to patent US20140031434A1, “Use of Patchouli Alcohol in Preparation of Drug Against Helicobacter Pylori” (priority 2011, published 2014):
Converted amounts (≈) assume the structure as drawn. Marks after values point to notes of the source that are not given here.

Assays:
[1] = system: Helicobacter pylori (Hp) ATCC43504; test: In vitro anti-Helicobacter pylori effect, minimum inhibitory concentration (filter paper on Columbia Blood Agar Plate); type: cell-based; conditions: Helicobacter pylori ATCC43504, 37° C. micro-aerobic, 72 hours
[2] = system: Candida albicans (98001); test: Selective inhibitory effect, in vitro MIC (broth dilution, turbidity); type: cell-based; conditions: 48 h, read-out: In vitro Minimum Inhibitory Concentration MIC
Text: (§1) Strains: Lactobacillus acidophilus, E. coli, Staphylococcus epidermidis, yeast, thermophilic Bifidobacterium, Staphylococcus aureus (26112), Alpha-Hemolytic Streptococcus (32209), Shigella (32013), Streptococcus pneumoniae (31001), Catarrhal, Corynebacterium diphtheriae (38101), Escherichia coli (44113), Pseudomonas aeruginosa (10211), Salmonella Typhi and Candida albicans (98001), Catarrhal is isolated from specimen collected from the throat in the bacterial laboratory, Candida albicans is donated by Guangzhou Institute for Food and Drug Control, all other strains are provided by Beijing Institute for Food and Drug Control; Trichophyton gypseum (4097), Trichophyton cerebriforme, Trichophyton tonsurans, Microsporum gypseum, Microsporum lanosum, Epidermophyton floccosum (previously known as Trichophyton floccosum) and Trichophyton rubrum are donated by Shanghai Huashan Hospital.
(§2) 3. Culture medium: nutrient broth, 1% dextrose broth, 1% serum broth, Sabouraud agar plate, prepared by conventional preparation method.
(§3) Drug preparation: Use nutrient broth to prepare a series of 14 drug solution in which the content of drug per ml are, 0.1 g, 0.05 g, 0.025 g . . . 1.22×10^−5 g respectively and the total volume of each test tube is 1 ml, and sterile by steam sterilization. […]

[3] = system: Trichophyton rubrum; test: Selective inhibitory effect, in vitro MIC; type: cell-based; conditions: read-out: In vitro Minimum Inhibitory Concentration MIC
Text: as §1, §2
(§4) Drug preparation: Use nutrient broth to prepare a series of 14 drug solution in which the content of drug per ml are, 0.1 g, 0.05 g, 0.025 g . . . 1.22×10^−5 g respectively and the total volume of each test tube is 1 ml, and sterile by steam sterilization. For Streptococcus testing, 1% glucose is added to the sterile drug solution, for Streptococcus pneumoniae and Corynebacterium diphtheria, 10% inactivated rabbit serum is added, and for Candida albicans, the drug solution is prepared by using Sabouraud broth.
(§5) Control: for strain control, testing bacteria is added to non-drug culture media; for drug control, no bacteria is added to the drug solution.
(§6) For each drug solution at different concentration and for bacteria control, add 1 ml of 1:2000 testing bacteria solution (8 hours cultured substance) to each tube, incubate bacteria culture at 37° C. for 18 hours and observe the results. For Candida albicans, 24 hours cultured substance is used, and incubate bacteria culture at 28° C. for 48 hours after bacteria is added to the drug solution and then observe the results. Turbidity is the indicator and visually observe each tube to determine if there is any bacterial growth.
(§7) Determine minimum inhibitory concentration (MIC): MIC is the lowest concentration of an antimicrobial that will inhibit the visible growth of a microorganism.

[4] = system: Epidermophyton floccosum; test: Selective inhibitory effect, in vitro MIC; type: cell-based; conditions: read-out: In vitro Minimum Inhibitory Concentration MIC
Text: as §1, §2, §4, §5, §6, §7

[5] = system: Trichophyton cerebriforme; test: Selective inhibitory effect, in vitro MIC; type: cell-based; conditions: read-out: In vitro Minimum Inhibitory Concentration MIC
Text: as §1, §2, §4, §5, §6, §7

[6] = system: Microsporum lanosum; test: Selective inhibitory effect, in vitro MIC; type: cell-based; conditions: read-out: In vitro Minimum Inhibitory Concentration MIC
Text: as §1, §2, §4, §5, §6, §7

[7] = system: Trichophyton tonsurans; test: Selective inhibitory effect, in vitro MIC; type: cell-based; conditions: read-out: In vitro Minimum Inhibitory Concentration MIC
Text: as §1, §2, §4, §5, §6, §7

[8] = system: Trichophyton gypseum (4097); test: Selective inhibitory effect, in vitro MIC; type: cell-based; conditions: Nannizzia gypsea, read-out: In vitro Minimum Inhibitory Concentration MIC
Text: as §1, §2, §4, §5, §6, §7

[9] = system: Microsporum gypseum; test: Selective inhibitory effect, in vitro MIC; type: cell-based; conditions: Nannizzia gypsea, read-out: In vitro Minimum Inhibitory Concentration MIC
Text: as §1, §2, §4, §5, §6, §7

[10] = in vivo; conditions: for LD50 at 14 days: both, KM, mouse, in vivo, Bliss method
Procedure: (§8) 1.3 Testing animal: KM mice, SPF grade, weight 18-22 g, equal numbers of male and female, obtained from Animal Laboratory Center of Guangzhou University of Chinese Medicine, Certificate number: SCXK (Yue) 2008-0020.
(§9) 2.1 Preparation of drug solution: weight a predetermined quantity of patchouli alcohol and put it into a beaker, add suitable amount of peanut oil into the beaker as solvent, mix while heating until the patchouli alcohol is dissolved. Cool under room condition and then add peanut oil to the predetermined amount to obtain the patchouli alcohol solution.
(§10) 2.2 Animal grouping: Take 200 mice, weight between 18˜22 g, divided by weight and randomly divided into 4 groups, namely: orogastric gavage drug group, orogastric gavage control group (equal volume of peanut oil is used), intraperitoneal injection drug group, Intraperitoneal injection control group (equal volume of peanut oil is used), each group includes 50 mice, equal numbers of male and female, raise for one week before experiment for the mice to adapt to the environment, water fasting for 24 hours before experiment.
Set the initial dose at 6.32 g/kg, at a ratio of 1:0.75 divide 5 groups, each group includes 10 mice, equal numbers of male and female, give patchouli alcohol solution to each of the mice once by intraperitoneal injection according to the dosage at 2.0 g/kg, 2.67 g/kg, 3.56 g/kg, 4.70 g/kg, 6.32 g/kg for each group. Observe consecutively for 14 days, record toxicity reaction and lethal rate every day, and calculate the medium lethal dose (LD50) by Bliss method.

[11] = system: Helicobacter pylori; test: In vivo anti-Helicobacter pylori effect, Hp infection model, serum urease antibody to Helicobacter pylori; set-up: species or system BALB/c mice; conditions: 1 time per day for 8 weeks
Procedure: (§11) Take SPF (specific pathogen free) BALB/c mice, equal numbers of male and female, each weight 18˜20 g; divide randomly into three groups, which are normal control group, model control group and triple therapy group. Give the corresponding experimental drugs according to table 1 below. Hp infection model is prepared by using antibiotics and oral gavage of Hp. Day 1, oral gavage 0.5 ml/mouse antibiotics mixture (0.25 ml ampicillin (20 mg/ml), 0.15 ml gentamicin (4 mg/ml), 0.1 ml azithromycin (50 mg/ml)) for three consecutive days for all testing animals, use equal volume of physiological saline for normal control group; starting from day 4, water fasting for 12 hours, oral gavage freshly prepared Hp suspended solution (0.5 ml/mouse/day, concentration 10^8 CFU/ml) for seven consecutive days, use equal volume of physiological saline for normal control group. Starting from day 11, oral gavage testing drug to the testing animals (use equal volume of physiological saline for normal control group), 1 time per day for 8 consecutive weeks. After the last drug administration, fasting for 24 hours. Take serum sample by orbital bleeding and centrifugation. Test for Helicobacter pylori urease antibody (according to the instruction of the instrument); sacrifice mice, tissue from pyloric antrum is first taken for rapid urease test and then observe for 3 minutes, and determine the test results in which strong positive refers to color change at peripheral portion from yellow to red within 1 minute, weak positive refers to color change within 3 minutes, and negative refers to no color change; the remaining stomach tissue is fixed in 10% formalin, then embed and cutting for carbol-fuchsin test, observe the Hp infection condition of the gastric mucosa and determine the condition.

[12] = system: Streptococcus pneumoniae (31001); test: Selective inhibitory effect, in vitro MIC (broth dilution, turbidity); type: cell-based; conditions: 10% inactivated rabbit serum added, 37° C., 18 hours, read-out: In vitro Minimum Inhibitory Concentration MIC
Text: as §1, §2, §3

[13] = system: Helicobacter pylori; test: In vivo anti-Helicobacter pylori effect, Hp infection model, rapid urease test of pyloric antrum tissue; set-up: species or system BALB/c mice; conditions: 1 time per day for 8 weeks
Procedure: as §11

[14] = cited from earlier work
[15] = system: Helicobacter pylori; test: In vivo anti-Helicobacter pylori effect, Hp infection model, carbol-fuchsin staining of stomach tissue; set-up: species or system BALB/c mice
Procedure: as §11
Histopathological findings: after staining stomach tissue by carbol-fuchsin method, the Hp become […] in color, have a curved or rod shape, and mainly locate in gastric pit surface and mucus.

[16] = in vivo; conditions: orogastric gavage; for LD50 at 14 days: both, KM, mouse, in vivo, po, Bliss method
Procedure: as §8, §9, §10
Set the initial dose at 7.90 g/kg, at a ratio of 1:0.75 divide 5 groups, each group includes 10 mice, equal numbers of male and female, give patchouli alcohol solution to mice once by orogastric gavage according to the dosage at 2.5 g/kg, 3.33 g/kg, 4.44 g/kg, 5.93 g/kg, 7.90 g/kg for each group. Observe consecutively for 14 days, record toxicity reaction and lethal rate every day, and calculate the medium lethal dose (LD50) by Bliss method.

[17] = mice, intraperitoneal injection
[18] = mice, intraperitoneal injection, pre-test
[19] = 10 mg/kg oral gavage, 11 animals
[20] = 20 mg/kg oral gavage, 11 animals
[21] = 40 mg/kg oral gavage, 10 animals
[22] = High Dose 40 mg/kg oral gavage, 10 animals
[23] = Low Dose 10 mg/kg oral gavage, 11 animals
[24] = Medium Dose 20 mg/kg oral gavage, 11 animals

CC1(C)S[C@@H]2[C@H](NC(=O)[C@H](N)c3ccc(O)cc3)C(=O)N2[C@H]1C(=O)O [Amoxicillin, reference compound]
MIC (minimum inhibitory concentration) [1]: 120 µg/mL (≈ 328 µM)

CC(=O)N1CCN(c2ccc(OCC3COC(Cn4ccnc4)(c4ccc(Cl)cc4Cl)O3)cc2)CC1 (stereo not drawn) [Ketoconazole]
MIC [2]: 12200 µg/mL (≈ 23000 µM) | MIC [3]: 24400 µg/mL (≈ 45900 µM) | MIC [4]: 383 µg/mL (≈ 721 µM) | MIC [5]: 383 µg/mL (≈ 721 µM) | MIC [6]: 24500 µg/mL (≈ 46100 µM) | MIC [7]: 49000 µg/mL (≈ 92200 µM) | MIC [8]: 383 µg/mL (≈ 721 µM) | MIC [9]: 383 µg/mL (≈ 721 µM)

C[C@H]1CC[C@@]2(O)C(C)(C)[C@@H]3CC[C@@]2(C)[C@H]1C3 [Patchouli Alcohol, (1R,4S,4aS,6R,8aS)-4,a,9,9-tetramethyloctahydro-1,6-methanonaphthalen-1(2H)-ol]
LD50 at 14 days ([10]; LD50, mice, intraperitoneal acute toxicity (sentence prints orogastric gavage), peanut oil solution): 3140 mg/kg | LD50 at 14 days ([10]; ip, LD50 95% confidence interval lower limit, mice, intraperitoneal acute toxicity): 2660 mg/kg | LD50 at 14 days ([10]; ip, LD50 95% confidence interval upper limit, mice, intraperitoneal acute toxicity): 3680 mg/kg | autopsy of the dead mice [10, 17]: no obvious abnormality is found in major organs | time at which death usually occurs [10, 17]: 6˜12 hours | maximum lethal dose [10, 18]: 6320 mg/kg | minimum lethal dose [10, 18]: 2000 mg/kg | Positive (Count) [11, 19]: 0 Count | Positive rate (%) [11, 19]: 0.00** % | Positive (Count) [11, 20]: 0 Count | Positive rate (%) [11, 20]: 0.00** % | Positive (Count) [11, 21]: 0 Count | Positive rate (%) [11, 21]: 0.00** % | MIC (minimum inhibitory concentration) [1]: 78 µg/mL (≈ 351 µM) | MIC [12]: 510 µg/mL (≈ 2290 µM) | Strong positive (count) [13, 22]: 2 count | Total Positive Rate (%) [13, 22]: 40.00% | Weak positive (count) [13, 22]: 2 count | Strong positive (count) [13, 23]: 0 count | Total Positive Rate (%) [13, 23]: 36.36% | Weak positive (count) [13, 23]: 4 count | Strong positive (count) [13, 24]: 0 count | Total Positive Rate (%) [13, 24]: 27.27* % | Weak positive (count) [13, 24]: 3 count | solubility in ethanol and ether and common organic solvent ([14]; ethanol, ether, common organic solvent): soluble | solubility in water ([14]; water): insoluble | animals with blue Hp found in the gastric pit (positive/total) ([15]; high dose group): 6/11 | infection rate ([15]; high dose group): 60% | animals with blue Hp found in the gastric pit and the mucosal surface (positive/total) ([15]; low dose group): 9/11 | infection rate ([15]; low dose group): 81.81% | animals with blue Hp found in the gastric pit (positive/total) ([15]; medium dose group): 7/11 | infection rate ([15]; medium dose group): 63.63% | LD50 at 14 days ([16]; LD50 95% confidence interval lower limit, mice): 4040 mg/kg | LD50 at 14 days ([16]; LD50 95% confidence interval upper limit, mice): 5500 mg/kg | LD50 at 14 days ([16]; LD50, mice, peanut oil solution): 4690 mg/kg | autopsy of the dead mice ([16]; mice): no obvious abnormality is found in major organs | time at which death usually occurs ([16]; mice): 6˜12 hours | maximum lethal dose ([16]; mice, pre-test): 7900 mg/kg | minimum lethal dose ([16]; mice, pre-test): 2500 mg/kg
